Data reported in article PMC6193951, “Intra- and inter-protein couplings of backbone motions underlie protein thiol-disulfide exchange cascade” (Scientific Reports, 2018).

Legend:
[1] = molecular target: T1, B. subtilis ArsC (Bs_ArsC), reduced state re-ArsC (Bacillus subtilis, UniProt P45947); experiment: isothermal titration calorimetry; type: binding
T1 construct: full-length, 139 residues; recombinant, prepared as previously reported; reduced state (C10, C82, C89 free thiols)
T1 sequence (P45947 1-139): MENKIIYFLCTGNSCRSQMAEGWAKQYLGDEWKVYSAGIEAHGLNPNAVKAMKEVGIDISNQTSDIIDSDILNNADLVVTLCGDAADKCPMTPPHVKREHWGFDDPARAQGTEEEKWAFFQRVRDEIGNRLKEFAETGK

[2] = molecular target: T2, B. subtilis arsenate reductase ArsC_C10SC15AC82S mutant (ArsC in the Trx-complexed state) (B. subtilis, UniProt P45947 1-139, C10S | C15A | C82S, C89 forms an intermolecular disulfide bond with Trx (C89^ArsC-C29^Trx); 15N-labeled in one sample, unlabeled in the other); experiment: preparation of a mixed-disulfide complex (DTNB incubation), studied by NMR (15N CPMG RD, CEST); Trx_C32S and ArsC_C10SC15AC82S linked by an intermolecular disulfide with the 5,5-dithiobis(2-nitrobenzoic acid) incubation protocol; NMR samples in 20 mM Tris-HCl (pH 6.85), 40 mM KCl, 20 mM urea, 20 mM Na2SO4; 25 °C; settings: both partners purified
T2 construct: Thioredoxin-coupled arsenate reductase ArsC, Bacillus subtilis; triple mutant C10S/C15A/C82S used to trap the mixed-disulfide complex; also called c-ArsC; source: purity greater than 95% by SDS-PAGE
T2 sequence: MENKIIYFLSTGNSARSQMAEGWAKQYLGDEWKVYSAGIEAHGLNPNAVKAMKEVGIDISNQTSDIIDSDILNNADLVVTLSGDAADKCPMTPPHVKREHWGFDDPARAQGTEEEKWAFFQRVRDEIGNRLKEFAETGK

binding result [2]	Molecule	Kd [1] [µM]
–	O=S(=O)(O)O [sulfate]	700
binds	B. subtilis thioredoxin Trx_C32S mutant (Trx in the ArsC-complexed state) (enzyme, C29 in the mixed disulfide with ArsC C89 (C89^ArsC-C29^Trx); 15N-labeled in one sample, unlabeled in the other, Thioredoxin (Trx), Bacillus subtilis; C32S mutant used to trap the mixed-disulfide complex; also called c-Trx; source: purity greater than 95% by SDS-PAGE) MAIVKATDQSFSAETSEGVVLADFWAPWCGPSKMIAPVLEELDQEMGDKLKIVKIDVDENQETAGKYGVMSIPTLLVLKDGEVVETSVGFKPKEALQELVNKHL	–
